The values that follow come from US11655235B2, “Pyrrolidine and piperidine compounds” (YUHAN CORPORATION, priority 2019, dated 2023).

SMILES strings stand for the structures. Where two headings read alike, the source gives them in different places.

Common to all, as to assay type: biochemical
The target of test [1] is T1, Recombinant human FAP (Homo sapiens, UniProt Q12884).
T1 construct: purchased R&D systems
T1 sequence (Q12884 1-760): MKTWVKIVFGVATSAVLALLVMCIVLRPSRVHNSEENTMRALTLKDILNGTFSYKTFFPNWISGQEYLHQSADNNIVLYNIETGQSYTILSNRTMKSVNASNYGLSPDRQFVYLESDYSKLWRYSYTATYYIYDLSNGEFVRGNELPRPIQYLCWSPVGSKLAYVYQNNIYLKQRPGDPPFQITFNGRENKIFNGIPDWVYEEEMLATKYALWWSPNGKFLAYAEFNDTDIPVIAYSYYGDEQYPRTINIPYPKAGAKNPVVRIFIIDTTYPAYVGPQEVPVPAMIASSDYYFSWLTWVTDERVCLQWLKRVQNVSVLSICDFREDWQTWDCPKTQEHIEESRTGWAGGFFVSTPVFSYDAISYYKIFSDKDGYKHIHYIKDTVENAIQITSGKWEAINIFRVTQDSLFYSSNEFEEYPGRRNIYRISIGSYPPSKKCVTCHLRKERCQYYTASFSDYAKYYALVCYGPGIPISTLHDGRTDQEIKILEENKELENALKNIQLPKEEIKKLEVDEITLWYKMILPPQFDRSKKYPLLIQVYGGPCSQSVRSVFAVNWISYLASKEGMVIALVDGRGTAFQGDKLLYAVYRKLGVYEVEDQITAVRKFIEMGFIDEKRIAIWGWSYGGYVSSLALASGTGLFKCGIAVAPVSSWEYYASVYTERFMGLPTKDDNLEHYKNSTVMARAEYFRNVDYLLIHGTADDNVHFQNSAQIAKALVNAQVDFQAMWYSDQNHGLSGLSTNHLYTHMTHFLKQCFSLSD
The test can be described thus: FAP inhibition, fluorogenic substrate Z-Gly-Pro-AMC. As to conditions: for inhibition at 1 µM: read-out: hFAP inhibition % at 1 μM. Put shortly: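 Eight-point compound dilutions (≤0.1% DMSO) were incubated at 25° C with 10 ng recombinant human FAP in Tris pH 7.5/1 M NaCl/BSA buffer and Z-Gly-Pro-AMC. Inhibition was taken as % drop in fluorescence rate (380/460 nm) against uninhibited control; IC50 came from a four-parameter logistic fit.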

The target in test [2] is T2, recombinant human DPP7 (Homo sapiens, UniProt Q9UHL4).
T2 construct: purchased R&D Systems
In words: DPP7 inhibition, fluorogenic substrate Lys-Pro-AMC. As to the method: The compounds according to the present technology were evaluated in terms of the inhibitory effect on the activity of dipeptidyl peptidases including FAP by using a substrate producing fluorescent substances upon enzymatic decomposition. The test was conducted at 25° C. to get a final reaction volume of 100 μL in a 96 black well plate. […] Briefly, the test compounds were dissolved in dimethyl sulfoxide (DMSO) at a concentration of 20 mM and then subjected to serial dilution, thereby creating an 8 point curve. As for the control group, a 6 point curve created by serial dilution of Talabostat in the same buffer solution was used. Fluorescence intensity was measured using a microplate reader (Flexstation3, Molecular Devices) under the wavelength condition exciting at 380 nm and reading the emission at 460 nm. The inhibitory effect of the test compounds was measured as a decrease (%) in the signal rate as compared to the control group without any inhibitor. Data was fixed to a logistic model with four variables and IC50 value was calculated using GraphPad Prism program. As for recombinant human DPP4 (R&D Systems), 25 mM tris (pH 8.0) buffer as a buffer solution and H-Gly-Pro-AMC (Bachem) as a substrate were used. As for recombinant human DPP7 (R&D Systems), 25 mM MES (pH 6.0) buffer as a buffer solution and Lys-Pro-AMC (Bachem) as a substrate were used. As for recombinant human DPP8 (PBS Bioscience), as a buffer solution, a 10 mM tris (pH 7.4) buffer comprising 10 mM of magnesium chloride and 0.05% of Tween 20, and Z-Ala-Pro-AMC (BPS Bioscience) as a substrate were used. As for recombinant human DPP9 (R&D Systems), a 25 mM tris (pH 8.0) buffer as a buffer solution and H-Gly-Pro-AMC (Bachem) as a substrate were used. As for recombinant human PREP (R&D System), as a buffer solution, a 25 mM tris (pH 7.5) buffer comprising 250 mM sodium chloride and 2.5 mM DTT (Dithiolthreitol), and Z-Gly-Pro-AMC (Bachem) as a substrate were used. The evaluation was made by using 10 ng of DPP4, PDD7, and PREP, 20 ng of DPP8, and 50 ng of DPP9 based on the final reaction. In the evaluation of DPP4, the test compounds were subjected to serial dilution in a buffer under the condition containing up to 0.1% of DMSO. In the evaluation of DPP7, DPP8, DPP9, and PREP, the test compounds were subjected to serial dilution in each buffer under the condition containing up to 0.5% of DMSO.

Test [3] concerns the target DPP4 (Homo sapiens, UniProt P27487). In words: DPP4 inhibition, fluorogenic substrate H-Gly-Pro-AMC. Further details: purchased R&D Systems. Conditions: for inhibition at 1 µM: read-out: hDPP4 inhibition % at 1 μM.
Where [4] appears, read: 25° C., Z-Gly-Pro-AMC substrate.
The mark [5] stands for this setting: 25° C., H-Gly-Pro-AMC substrate.
The mark [6] stands for this setting: recombinant human FAP, substrate Z-Gly-Pro-AMC.

Chain of DPP4 (P27487 whole entry): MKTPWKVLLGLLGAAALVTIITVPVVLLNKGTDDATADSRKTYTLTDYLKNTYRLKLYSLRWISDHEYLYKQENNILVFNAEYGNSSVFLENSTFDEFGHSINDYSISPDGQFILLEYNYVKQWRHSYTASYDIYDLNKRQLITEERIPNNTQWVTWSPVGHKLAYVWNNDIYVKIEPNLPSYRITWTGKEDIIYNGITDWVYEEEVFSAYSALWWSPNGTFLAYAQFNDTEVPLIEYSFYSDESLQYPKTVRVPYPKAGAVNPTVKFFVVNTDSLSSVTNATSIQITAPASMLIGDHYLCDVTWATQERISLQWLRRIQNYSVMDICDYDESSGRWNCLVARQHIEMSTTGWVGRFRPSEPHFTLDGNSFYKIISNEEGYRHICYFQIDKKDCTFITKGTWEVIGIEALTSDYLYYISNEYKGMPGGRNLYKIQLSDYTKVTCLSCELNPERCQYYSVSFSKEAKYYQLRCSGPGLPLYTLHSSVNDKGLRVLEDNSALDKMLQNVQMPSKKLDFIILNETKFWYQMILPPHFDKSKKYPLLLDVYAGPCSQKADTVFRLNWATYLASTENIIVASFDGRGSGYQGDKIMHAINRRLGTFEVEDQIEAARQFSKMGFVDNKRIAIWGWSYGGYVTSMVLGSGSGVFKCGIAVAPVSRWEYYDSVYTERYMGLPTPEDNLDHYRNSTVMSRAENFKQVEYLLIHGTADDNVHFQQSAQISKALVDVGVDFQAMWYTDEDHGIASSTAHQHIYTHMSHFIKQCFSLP

As usually defined, the IC50 is the point on the concentration scale where inhibition reaches its midpoint. In the case of `COc1ccc2cc(N(C)[C@H]3CCN(CC(=O)N4CCC[C@H]4C#N)C3)cnc2c1` [Example 153, (S)-1-(2-((S)-3-((7-methoxyquinolin-3-yl)(methyl)amino)pyrrolidin-1-yl)acetyl)pyrrolidine-2-carbonitrile], the IC50 in test [1] (setting [4]) came to 3.4 nM; in test [2] it was 3120 nM.

For the compound `N#C[C@@H]1CCCN1C(=O)CN1CC[C@H](Oc2cccc3ncccc23)C1` [Example 66, (S)-1-(2-((S)-3-(quinolin-5-yloxy)pyrrolidin-1-yl)acetyl)pyrrolidine-2-carbonitrile], the IC50 in test [1] (setting [4]) is 5.48 nM; in test [2] it was 6390 nM; in test [3] (setting [5]), above 1000 nM.

`N#C[C@@H]1C[C@H](F)CN1C(=O)CN1CC[C@H](Nc2ccc3cccnc3c2)C1` [Example 251, (2S,4S)-4-fluoro-1-[2-[(3S)-3-(7-quinolylamino)pyrrolidin-1-yl]acetyl]pyrrolidine-2-carbonitrile]: the IC50 in test [1] (setting [6]) turned out to be 3.1 nM; in test [2] (recombinant human DPP7), 199 nM; in test [3] (recombinant human DPP4), 2310 nM.

As for `N#C[C@@H]1CCCN1C(=O)CN1CC[C@H](Oc2ccnc3ccccc23)C1` [Example 61, (S)-1-(2-((S)-3-(quinolin-4-yloxy)pyrrolidin-1-yl)acetyl)pyrrolidine-2-carbonitrile], the IC50 is 21.5 nM in test [1] (setting [4]), 1150 nM in test [2] and above 1000 nM in test [3] (setting [5]).

As for `CN(c1cc2ccccc2cn1)C1CCN(CC(=O)N2CCC[C@H]2C#N)CC1` [Example 321, (2S)-1-[2-[4-[3-isoquinolyl(methyl)amino]-1-piperidyl]acetyl]pyrrolidine-2-carbonitrile], the IC50 in test [1] (setting [6]) was 8.8 nM; in test [2] (recombinant human DPP7), 10500 nM; in test [3] (recombinant human DPP4) it was above 10000 nM.

A word on the inhibition: it is the share of the control response that was lost under treatment. Take `COc1ccc2occ(C(=O)N[C@H]3CCN(CC(=O)N4CCC[C@H]4C#N)C3)c2c1` [Example 46, N—((S)-1-(2-((S)-2-cyanopyrrolidin-1-yl)-2-oxoethyl)pyrrolidin-3-yl)-5-methoxybenzofuran-3-carboxamide]: the results for the IC50 in test [1] (setting [4]) and in test [2] were 7.7 nM and 2200 nM, respectively. In addition, the inhibition at 1 µM in test [3] was 1.4%.

As for `N#C[C@@H]1CCCN1C(=O)CN1CC[C@H](NC(=O)c2cccc3occc23)C1` [Example 55, N—((S)-1-(2-((S)-2-cyanopyrrolidin-1-yl)-2-oxoethyl)pyrrolidin-3-yl)benzofuran-4-carboxamide], the IC50 in test [1] (setting [4]) was 20 nM. In addition, the inhibition at 1 µM in test [3] came out at 1.1%.

`N#C[C@@H]1CCCN1C(=O)CN1CC[C@H](NS(=O)(=O)c2cc3ccccc3o2)C1` [Example 59, N—((S)-1-(2-((S)-2-cyanopyrrolidin-1-yl)-2-oxoethyl)pyrrolidin-3-yl)benzofuran-2-sulfonamide]: the inhibition at 1 µM in test [1] worked out at 33.4%. Moreover, the “hDPP4 inhibition % at 1 μM” value in test [3] is recorded as “No inhibition**”.

`N#C[C@@H]1CCCN1C(=O)CN1CC[C@H](Nc2ccnc3ccccc23)C1` [Example 5, (S)-1-(2-((S)-3-(quinolin-4-ylamino)pyrrolidin-1-yl)acetyl)pyrrolidine-2-carbonitrile]: the IC50 was 2.6 nM in test [1] (setting [4]), 294 nM in test [2] and above 1000 nM in test [3] (setting [5]).

Take `N#C[C@@H]1CCCN1C(=O)CN1CC[C@H](Nc2cncc3ccoc23)C1` [Example 23, (S)-1-(2-((S)-3-(furo[3,2-c]pyridin-7-ylamino)pyrrolidin-1-yl)acetyl)pyrrolidine-2-carbonitrile]: the IC50 in test [1] (setting [4]) was 3.08 nM; in test [2] it was 951 nM; in test [3] (setting [5]) it was above 1000 nM.

In the case of `COc1ccc2nccc(OC3CCN(CC(=O)N4C[C@@H](F)C[C@H]4C#N)CC3)c2c1` [Example 128, (2S,4S)-4-fluoro-1-(2-(4-((6-methoxyquinolin-4-yl)oxy)piperidin-1-yl)acetyl)pyrrolidine-2-carbonitrile], the values for the IC50 in test [1] (setting [4]), in test [2] and in test [3] (setting [5]) were 0.78 nM, 5900 nM and above 10000 nM, respectively.

Regarding `N#C[C@@H]1CCCN1C(=O)CN1CC[C@H](Nc2cccc3ccoc23)C1` [Example 22, (S)-1-(2-((S)-3-(benzofuran-7-ylamino)pyrrolidin-1-yl)acetyl)pyrrolidine-2-carbonitrile], in test [1] (setting [4]), the IC50 came to 9.03 nM. Further, the inhibition at 1 µM in test [3] turned out to be 4.2%.

With `COc1ccc2ncccc2c1N[C@H]1CCN(CC(=O)N2CCC[C@H]2C#N)C1` [Example 240, (2S)-1-[2-[(3S)-3-[(6-methoxy-5-quinolyl)amino]pyrrolidin-1-yl]acetyl]pyrrolidine-2-carbonitrile], the IC50 is 20 nM in test [1] (setting [6]) and above 10000 nM in test [3] (recombinant human DPP4).

In the case of `CC(=O)N1CCN(c2ccc(O[C@H]3CCN(CC(=O)N4CCC[C@H]4C#N)C3)cc2)CC1` [Example 98, (S)-1-(2-((S)-3-(4-(4-acetylpiperazin-1-yl)phenoxy)pyrrolidin-1-yl)acetyl)pyrrolidine-2-carbonitrile], the inhibition at 1 µM in test [1] was found to be 63.2%; in test [3] it was 9.1%.

Turning to `N#C[C@@H]1CCCN1C(=O)CN1CCC(Oc2ccc3ncccc3c2)CC1` [Example 120, (S)-1-(2-(4-(quinolin-6-yloxy)piperidin-1-yl)acetyl)pyrrolidine-2-carbonitrile], in test [1] (setting [4]), the IC50 amounted to 11.8 nM. In addition, in test [3], the “hDPP4 inhibition % at 1 μM” value was “No inhibition**”.

For the compound `N#C[C@@H]1CCCN1C(=O)CN1CC[C@H](Oc2cccc(Oc3ccccc3)c2)C1` [Example 88, (S)-1-(2-((S)-3-(3-phenoxyphenoxy)pyrrolidin-1-yl)acetyl)pyrrolidine-2-carbonitrile], the results for the inhibition at 1 µM in test [1] and in test [3] were 57.9% and 6.1%, respectively.

With `N#C[C@@H]1CCCN1C(=O)CN1CCC(Nc2cccc3ncccc23)CC1` [Example 110, (S)-1-(2-(4-(quinolin-5-ylamino)piperidin-1-yl)acetyl)pyrrolidine-2-carbonitrile], the IC50 in test [1] (setting [4]) was 2.2 nM; in test [2] it was 500 nM; in test [3] (setting [5]), above 1000 nM.

As for `N#C[C@@H]1CCCN1C(=O)CN1CC[C@H](Oc2ccc(C(=O)c3ccccc3)cc2)C1` [Example 92, (S)-1-(2-((S)-3-(4-benzoylphenoxy)pyrrolidin-1-yl)acetyl)pyrrolidine-2-carbonitrile], the figures for the inhibition at 1 µM in test [1] and in test [3] were 56.4% and 10.2%, respectively.

Consider `Cc1ccc2occ(C(=O)N[C@H]3CCN(CC(=O)N4CCC[C@H]4C#N)C3)c2c1` [Example 52, N—((S)-1-(2-((S)-2-cyanopyrrolidin-1-yl)-2-oxoethyl)pyrrolidin-3-yl)-5-methylbenzofuran-3-carboxamide], for which the half-inhibitory concentration (IC50) in test [1] (setting [4]) stood at 13.6 nM. The inhibition at 1 µM in test [3] came out at 0.5%.
